The procedure of series [1]: Mixtures were based on weight/weight and ranged from 5% drug/95% unneutralized Imwitor™ 380 to 10% drug/90% unneutralized Imwitor™ 380. The samples were prepared in scintillation vials (Research Products International) containing a stirbar to ensure adequate mixing.
How the values of series [2] were obtained: Various pharmaceutical drug actives and prodrugs were screened to test for solubility in the compositions including alpha-hydroxy acid esters. Solubility was determined by adding various amounts of the drug to a composition including alpha-hydroxy acid esters, mixing, and then visually determining the solubility. The composition selected for the screening was Imwitor™ 380, a partially neutralized mixture of citric acid/lactic acid esters of partial glycerides. Imwitor™ 380 contains approximately 60% citric acid/lactic acid esters of partial glycerides, less than 32% 1-monoglyceride, and not more than 5% glycerol (Product Information Sheet, 26.13.199e/07.98; Sasol).
Mixtures were based on weight/weight and ranged from 5% drug/95% Imwitor™ 380 to 15% drug/85% Imwitor™ 380. The samples were prepared in 12 ml glass vials, containing a stirbar to ensure adequate mixing, and sealed with Teflon lined caps (National Scientific Co.; vial: part no B7800-12; cap: 15-425).
This is another data set of the same source.

Consider two molecules from patent publication US20040191207A1, “ALPHA-HYDROXY ACID ESTER DRUG DELIVERY COMPOSITIONS AND METHODS OF USE” (priority 2003, published 2004).

Molecules are shown by their SMILES. Where two headings read alike, the source gives them in different places. Some results are limits rather than exact numbers.

For `CCOC(=O)C(C)(C)Oc1ccc(Cl)cc1` [Clofibrate, clofibrate], the Solubility in series [1] is recorded as greater than 100 mg/gm; in series [2], greater than 150 mg/gm.
For `CCCC(CCC)C(=O)O` [Valproic Acid, valproic acid], the Solubility is greater than 100 mg/gm in series [1] and greater than 150 mg/gm in series [2].
